Key:
SNB-19 = test: Growth inhibition of human SNB19 cells assessed as cell growth at 0.01 uM incubated for 48 hrs by sulforhodamine B assay relative to control; type: functional; settings: SNB-19, 48 h, read-out: Activity
HCT-15 = test: Growth inhibition of human HCT15 cells assessed as cell growth at 100 uM incubated for 48 hrs by sulforhodamine B assay relative to control; type: functional; settings: HCT-15, 48 h, read-out: Activity
T47D = test: Growth inhibition of human T47D cells assessed as cell growth at 0.01 uM incubated for 48 hrs by sulforhodamine B assay relative to control; type: functional; settings: read-out: Activity
K562 = test: Growth inhibition of human K562 cells assessed as cell growth at 0.1 uM incubated for 48 hrs by sulforhodamine B assay relative to control; type: functional; settings: K562, 48 h, read-out: Activity
SR = test: Growth inhibition of human SR cells assessed as cell growth at 0.01 uM incubated for 48 hrs by sulforhodamine B assay relative to control; type: functional; settings: read-out: Activity
HT-29 = test: Growth inhibition of human HT-29 cells incubated for 48 hrs by sulforhodamine B assay; type: functional, cell-based; settings: HT-29, 48 h
MDA-MB-468 = test: Growth inhibition of human MDA-MB-468 cells incubated for 48 hrs by sulforhodamine B assay; type: functional, cell-based; settings: MDA-MB-468, 48 h
MOLT-4 = test: Growth inhibition of human MOLT4 cells assessed as cell growth at 1 uM incubated for 48 hrs by sulforhodamine B assay relative to control; type: functional; settings: MOLT-4, 48 h, read-out: Activity
OVCAR-3 = test: Growth inhibition of human OVCAR3 cells assessed as cell growth at 100 uM incubated for 48 hrs by sulforhodamine B assay relative to control; type: functional; settings: OVCAR-3, 48 h, read-out: Activity
NCI-H226 = test: Growth inhibition of human NCI-H226 cells assessed as cell growth at 1 uM incubated for 48 hrs by sulforhodamine B assay relative to control; type: functional; settings: NCI-H226, 48 h, read-out: Activity
786-0 = test: Growth inhibition of human 786-0 cells incubated for 48 hrs by sulforhodamine B assay; type: functional, cell-based; settings: 786-0, 48 h
OVCAR-4 [1] = test: Growth inhibition of human OVCAR4 cells assessed as cell growth at 0.01 uM incubated for 48 hrs by sulforhodamine B assay relative to control; type: functional; settings: OVCAR-4, 48 h, read-out: Activity
HCC 2998 = test: Growth inhibition of human HCC2998 cells assessed as cell growth at 1 uM incubated for 48 hrs by sulforhodamine B assay relative to control; type: functional; settings: HCC 2998, 48 h, read-out: Activity
TK-10 = test: Growth inhibition of human TK10 cells assessed as cell growth at 10 uM incubated for 48 hrs by sulforhodamine B assay relative to control; type: functional; settings: TK-10, 48 h, read-out: Activity
MDA-MB-435 [2] = test: Growth inhibition of human MDA-MB-435 cells incubated for 48 hrs by sulforhodamine B assay; type: functional, cell-based; settings: MDA-MB-435, 48 h
U-251 = test: Growth inhibition of human U251 cells assessed as cell growth at 0.01 uM incubated for 48 hrs by sulforhodamine B assay relative to control; type: functional; settings: U-251, 48 h, read-out: Activity
SK-MEL-2 = test: Growth inhibition of human SK-MEL-2 cells assessed as cell growth at 0.1 uM incubated for 48 hrs by sulforhodamine B assay relative to control; type: functional; settings: SK-MEL-2, 48 h, read-out: Activity
OVCAR-8 = test: Growth inhibition of human OVCAR8 cells assessed as cell growth at 0.1 uM incubated for 48 hrs by sulforhodamine B assay relative to control; type: functional; settings: OVCAR-8, 48 h, read-out: Activity
M14 = test: Growth inhibition of human M14 cells assessed as cell growth at 0.1 uM incubated for 48 hrs by sulforhodamine B assay relative to control; type: functional; settings: M14, 48 h, read-out: Activity
SW-620 = test: Growth inhibition of human SW620 cells assessed as cell growth at 0.01 uM incubated for 48 hrs by sulforhodamine B assay relative to control; type: functional; settings: SW-620, 48 h, read-out: Activity
Hs-578T = test: Growth inhibition of human Hs578T cells assessed as cell growth at 1 uM incubated for 48 hrs by sulforhodamine B assay relative to control; type: functional; settings: read-out: Activity
OVCAR-4 [3] = test: Growth inhibition of human OVCAR4 cells incubated for 48 hrs by sulforhodamine B assay; type: functional, cell-based; settings: OVCAR-4, 48 h
A549 = test: Growth inhibition of human A549/ATCC cells assessed as cell growth at 1 uM incubated for 48 hrs by sulforhodamine B assay relative to control; type: functional; settings: A549, 48 h, read-out: Activity
HCT-116 = test: Growth inhibition of human HCT116 cells assessed as cell growth at 100 uM incubated for 48 hrs by sulforhodamine B assay relative to control; type: functional; settings: HCT-116, 48 h, read-out: Activity
MDA-MB-435 [4] = test: Growth inhibition of human MDA-MB-435 cells assessed as cell growth at 1 uM incubated for 48 hrs by sulforhodamine B assay relative to control; type: functional; settings: MDA-MB-435, 48 h, read-out: Activity
OVCAR-5 = test: Growth inhibition of human OVCAR5 cells incubated for 48 hrs by sulforhodamine B assay; type: functional, cell-based; settings: OVCAR-5, 48 h
A498 = test: Growth inhibition of human A498 cells incubated for 48 hrs by sulforhodamine B assay; type: functional, cell-based; settings: A498, 48 h
[5] = read-out: LC50 (the source's name)
[6] = read-out: pLC50 (the source's name) (converted)

Structure (SMILES): COc1cc(Cl)cc(-c2nn(-c3cccc(NC(=O)Nc4cc(C(F)(F)F)cc(C(F)(F)F)c4)c3)cc2-c2ccncc2)c1
- growth at 0.01 µM (SNB-19): 89%
- growth at 100 µM (HCT-15): -83%
- growth at 0.01 µM (T47D): 96%
- growth at 0.1 µM (K562): 91%
- growth at 0.01 µM (SR): 101%
- IC50 (HT-29): 450 nM
- GI50 (HT-29; read-out: GI50): 453 nM
- CC50 (HT-29; [5]): 12.6 nM
- TGI (HT-29; read-out: TGI): 2210 nM
- GI50 (HT-29; read-out: pGI50 (converted)): 457 nM
- CC50 (HT-29; [6]): 12900 nM
- TGI (HT-29; read-out: pTGI (converted)): 2820 nM
- IC50 (MDA-MB-468): 340 nM
- GI50 (MDA-MB-468; read-out: GI50): 336 nM
- CC50 (MDA-MB-468; [5]): > 100000 nM
- TGI (MDA-MB-468; read-out: TGI): 2520 nM
- GI50 (MDA-MB-468; read-out: pGI50 (converted)): 339 nM
- CC50 (MDA-MB-468; [6]): > 100000 nM
- TGI (MDA-MB-468; read-out: pTGI (converted)): 2510 nM
- growth at 1 µM (MOLT-4): 10%
- growth at 100 µM (OVCAR-3): -81%
- growth at 1 µM (NCI-H226): 41%
- IC50 (786-0): 570 nM
- GI50 (786-0; read-out: GI50): 558 nM
- CC50 (786-0; [5]): 63.1 nM
- TGI (786-0; read-out: TGI): 2170 nM
- GI50 (786-0; read-out: pGI50 (converted)): 562 nM
- CC50 (786-0; [6]): 6310 nM
- TGI (786-0; read-out: pTGI (converted)): 2190 nM
- growth at 0.01 µM (OVCAR-4 [1]): 93%
- growth at 1 µM (HCC 2998): 38%
- growth at 10 µM (TK-10): 30.3%
- IC50 (MDA-MB-435 [2]): 430 nM
- GI50 (MDA-MB-435 [2]; read-out: GI50): 425 nM
- LC50 (MDA-MB-435 [2]; read-out: LC50): 11.5 nM
- TGI (MDA-MB-435 [2]; read-out: TGI): 2030 nM
- GI50 (MDA-MB-435 [2]; read-out: pGI50 (converted)): 427 nM
- LC50 (MDA-MB-435 [2]; read-out: pLC50 (converted)): 11700 nM
- TGI (MDA-MB-435 [2]; read-out: pTGI (converted)): 2040 nM
- growth at 0.01 µM (U-251): 96%
- growth at 0.1 µM (SK-MEL-2): 95%
- growth at 0.1 µM (OVCAR-8): 105%
- growth at 0.1 µM (M14): 93%
- growth at 0.01 µM (SW-620): 98%
- growth at 1 µM (Hs-578T): 50%
- IC50 (OVCAR-4 [3]): 500 nM
- GI50 (OVCAR-4 [3]; read-out: GI50): 501 nM
- CC50 (OVCAR-4 [3]; [5]): > 100000 nM
- TGI (OVCAR-4 [3]; read-out: TGI): 21400 nM
- GI50 (OVCAR-4 [3]; read-out: pGI50 (converted)): 501 nM
- CC50 (OVCAR-4 [3]; [6]): > 100000 nM
- TGI (OVCAR-4 [3]; read-out: pTGI (converted)): 26900 nM
- growth at 1 µM (A549): 15%
- growth at 100 µM (HCT-116): -88%
- growth at 1 µM (MDA-MB-435 [4]): 22%
- IC50 (OVCAR-5): 1460 nM
- GI50 (OVCAR-5; read-out: GI50): 1460 nM
- CC50 (OVCAR-5; [5]): > 100000 nM
- TGI (OVCAR-5; read-out: TGI): 12800 nM
- GI50 (OVCAR-5; read-out: pGI50 (converted)): 1450 nM
- CC50 (OVCAR-5; [6]): > 100000 nM
- TGI (OVCAR-5; read-out: pTGI (converted)): 12900 nM
- IC50 (A498): 390 nM
- GI50 (A498; read-out: GI50): 350 nM
- CC50 (A498; [5]): 33.4 nM
- TGI (A498; read-out: TGI): 3590 nM
- GI50 (A498; read-out: pGI50 (converted)): 389 nM
- CC50 (A498; [6]): 33100 nM
- TGI (A498; read-out: pTGI (converted)): 3630 nM
